Data from patent US20120095060A1, “METHODS AND COMPOSITIONS OF MITOGEN-ACTIVATED PROTEIN KINASE (MAPK) PATHWAY INHIBITORS FOR TREATING PULMONARY FIBROSIS” (priority 2010, published 2012).

Key:
[1] = test system: ERK1/2; details: previously shown; cited from earlier work
[2] = test system: TGF-α-induced pulmonary fibrosis; details: previous study; cited from earlier work
[3] = test system: phosphorylation of ERK1/2; test: Western blot of lung homogenates for ERK1/2 phosphorylation in CCSP/TGF-α mice; type: in vivo; details: twice daily by gavage, 4 days of TGF-α induction, vs vehicle
Method: Western Blots: Western blot analysis was performed on lung homogenates of CCSP/TGF-α mice treated with 4 days of Dox. Controls were littermate single transgene CCSP/− mice treated with 1 day of Dox. Protein concentrations were assessed using a Bradford Assay and protein loaded on a 4%-20% Tris/glycine SDSPAGE (Invitrogen) and electroblotted to PVDF membranes (0.45 um: Bio-Rad). Blots were blocked with 5% nonfat dry milk in TBST (10 mM Tris, pH 8, 150 mM NaCl, 0.1% Tween 20) and incubated with antibodies against total and phosphorylated Erk (Cell Signaling Technology) and proliferating cell nuclear antigen (PCNA) (Cell Signaling Technology). Blots were washed in TBST and incubated with goat anti-rabbit horse radish peroxidase conjugated (Calbiochem, EMD Biosciences) secondary antibodies and developed on film by chemiluminescence using the ECL Plus system (Amersham Biosciences). Densitometry was performed using the volume integration function on a Phosphorlmager software Imagequant 5.2 (Molecular Dynamics, Sunnyvale, Calif.) after scanning the films.

[4] = test system: TGF-α-induced pulmonary fibrosis; test: Prevention study: lung proliferation and matrix gene expression (Collagens I, III and Elastin); type: in vivo; details: TGF-α transgenic mice, 4 weeks twice daily, vs vehicle
Method: A 4-week study was performed to evaluate the physiologic effects of MEK1/2 kinase inhibition with ARRY on TGF-α-induced pulmonary fibrosis. ARRY was administered to TGF-α transgenic mice; a model for studying pulmonary fibrosis. Endpoints included changes in lung mechanics, lung histology, lung cell proliferation and changes in matrix gene expression (Collagens I, III and Elastin). Differences in the parameters were compared between mice treated with and without ARRY. Mice which over express TGF-α that were treated with 4 weeks of vehicle (i.e. an innocuous or inert medication) developed severe lung fibrosis on histology and lung collagen measurements associated with severe lung restriction on lung mechanics. […] Together, these findings support that MEK1/2 inhibition prevents TGF-α/EGF-mediated pulmonary fibrosis, and is a possible pharmacological strategy to treat pulmonary fibrosis.

[5] = test system: established TGF-α-induced pulmonary fibrosis; test: Rescue study of established fibrosis: lung histology (trichrome stain); type: in vivo; details: CCSP/TGF-α mice, 8 weeks total Dox, treatment during last 4 weeks
Method: To determine whether the ERK/MAPK pathway mediates the progression of established fibrosis, CCSP/TGFα mice were treated with ARRY following 4 weeks of Dox, while remaining on Dox for an additional 4 weeks (8 weeks total Dox, 4 week ARRY). Controls included CCSP/TGFα mice treated with vehicle while remaining on Dox an additional 4 weeks (8 weeks total Dox, 4 week vehicle). CCSP/TGFα mice began losing body weight after 4 weeks of Dox. […] See FIG. 6, illustrating that TGF-α was induced with doxycycline for 8 weeks in transgenic mice. ARRY added after 4 weeks of TGF-α expression attenuated weight loss, compared to vehicle-treated mice. […] See FIG. 8, illustrating that ARRY prevents progression of TGF-α induced fibrosis as assessed by lung histology using a trichrome stain. In FIG. 8, a representative sample from 4 mice per group includes low power (4×) and higher power (10×) of pleural fibrosis. […] Lung Histology and Immunohistochemistry: Mice were killed with pentobarbital sodium (65 mg/ml) euthanasia solution (Fort Dodge Animal Health, Fort Dodge, Iowa), and lungs were inflation fixed using 4% paraformaldehyde at 25 cm H2O of pressure, and then allowed to fix overnight at 4° C. Fixed lungs were then washed with phosphate-buffered saline (PBS), dehydrated through a graded series of ethanols, and processed for paraffin embedding. […]

[6] = test system: TGF-α-induced pulmonary fibrosis; test: Prevention study: total lung collagen (Sircol Collagen Assay); type: in vivo; details: CCSP/TGF-α mice, twice daily for 4 weeks from time of Dox
Text: To examine if ARRY prevented the physiologic effects of TGF-α-induced lung fibrosis, CCSP/TGF-α mice were given ARRY twice daily for 4 weeks while TGF-α was induced. […] More specifically, FIG. 3 illustrates that ARRY prevents TGF-α-mediated alterations in lung mechanics (*=p<0.05 compared to vehicle and ARRY-treated mice). […] Representative samples from four mice per group include low power (4×) and higher power (10×) of pleural fibrosis. […] To induce TGF-α expression, adult transgenic mice (8-12 weeks old) were placed on Doxycycline-containing drinking water (0.5 mg/ml) and food (62.5 mg/kg). Dox-containing water was replaced three times per week. Administration of […]) is a potent, highly specific, allosteric inhibitor of MEK1/2. ARRY is a second generation MEK inhibitor that targets the Ras-Raf-MEK-ERK pathway. ARRY was administered to mice twice daily by gavage, with the first dose at the time of TGF-α induction with doxycycline. Mice were then anesthetized (Isoflurane; Abbott Labs, Chicago, Ill.), and 37.5 mg/kg sterile ARRY142886 was administered by gavage using a 20 gauge feeding catheter (Harvard Apparatus, Holliston, Mass.). […] Total Lung Collagen: Total lung collagen was determined by measuring total soluble collagen (Sircol Collagen Assay, Biocolor, Ireland). […] The optical density measured with a spectrophotometer (540 nm).

[7] = test system: established TGF-α-induced pulmonary fibrosis; test: Rescue study of established fibrosis: lung mechanics; type: in vivo; details: CCSP/TGF-α mice, 8 weeks total Dox, treatment during last 4 weeks, vs vehicle
Method: (§1) To determine whether the ERK/MAPK pathway mediates the progression of established fibrosis, CCSP/TGFα mice were treated with ARRY following 4 weeks of Dox, while remaining on Dox for an additional 4 weeks (8 weeks total Dox, 4 week ARRY). Controls included CCSP/TGFα mice treated with vehicle while remaining on Dox an additional 4 weeks (8 weeks total Dox, 4 week vehicle). CCSP/TGFα mice began losing body weight after 4 weeks of Dox. […] See FIG. 6, illustrating that TGF-α was induced with doxycycline for 8 weeks in transgenic mice. ARRY added after 4 weeks of TGF-α expression attenuated weight loss, compared to vehicle-treated mice.
See FIG. 7, illustrating that TGF-α was induced with doxycycline for 8 weeks in CCSP/TGF-α transgenic mice. ARRY added after 4 weeks of TGF-α expression prevented progression of alterations in lung mechanics compared to vehicle-treated mice. *=p<0.05 compared to vehicle control CSP/− mice. *#=p<0.05 compared to CCSP/TGF-α mice.
(§2) Pulmonary Mechanics: Lung mechanics were assessed on anesthetized mice using a computerized Flexi Vent system (SCIREQ, Montreal, Canada). […] The ventilation mode was changed to forced oscillatory signal (0.5-19.6 Hz), and respiratory impedance was measured. […]

[8] = test system: TGF-α-induced pulmonary fibrosis; test: Prevention study: lung mechanics in TGF-α-induced pulmonary fibrosis; type: in vivo; details: CCSP/TGF-α mice, twice daily for 4 weeks from time of Dox, vs vehicle
Text: To examine if ARRY prevented the physiologic effects of TGF-α-induced lung fibrosis, CCSP/TGF-α mice were given ARRY twice daily for 4 weeks while TGF-α was induced. […] More specifically, FIG. 3 illustrates that ARRY prevents TGF-α-mediated alterations in lung mechanics (*=p<0.05 compared to vehicle and ARRY-treated mice). […] Representative samples from four mice per group include low power (4×) and higher power (10×) of pleural fibrosis.
To induce TGF-α expression, adult transgenic mice (8-12 weeks old) were placed on Doxycycline-containing drinking water (0.5 mg/ml) and food (62.5 mg/kg). Dox-containing water was replaced three times per week.
Administration of ARRY142886: ARRY142886 (ARRY) is a potent, highly specific, allosteric inhibitor of MEK1/2. ARRY is a second generation MEK inhibitor that targets the Ras-Raf-MEK-ERK pathway. ARRY was administered to mice twice daily by gavage, with the first dose at the time of TGF-α induction with doxycycline. […]
as §2

[9] = test system: TGF-α-induced cellular proliferation; test: Epithelial and mesenchymal proliferation in lung sections of CCSP/TGF-α mice; type: in vivo; details: twice daily by gavage, 4 days of TGF-α induction
Method: ARRY was administered to CCSP/TGF-α mice (i.e., mice expressing TGF-α in the epithelium, under control of the doxycycline (Dox)-regulatable Clara cell secretory protein promoter) twice daily by gavage, with the first dose at the time of TGF-α induction with doxycycline. Mice were sacrificed after 4 days of TGF-α induction and ARRY administration.
(§3) Administration of ARRY142886: ARRY142886 (ARRY) is a potent, highly specific, allosteric inhibitor of MEK1/2. ARRY is a second generation MEK inhibitor that targets the Ras-Raf-MEK-ERK pathway. ARRY was administered to mice twice daily by gavage, with the first dose at the time of TGF-α induction with doxycycline. Mice were then anesthetized (Isoflurane; Abbott Labs, Chicago, Ill.), and 37.5 mg/kg sterile ARRY142886 was administered by gavage using a 20 gauge feeding catheter (Harvard Apparatus, Holliston, Mass.). Mice were treated with vehicle or ARRY twice daily for up to 4 weeks. Mice were weighed at the beginning of the study and at weekly intervals.
Lung Histology and Immunohistochemistry: Mice were killed with pentobarbital sodium (65 mg/ml) euthanasia solution (Fort Dodge Animal Health, Fort Dodge, Iowa), and lungs were inflation fixed using 4% paraformaldehyde at 25 cm H2O of pressure, and then allowed to fix overnight at 4° C. […]

[10] = test system: TGF-α-induced pulmonary fibrosis; test: Prevention study: lung histology (trichrome stain); type: in vivo, mice
Text: To examine if ARRY prevented the physiologic effects of TGF-α-induced lung fibrosis, CCSP/TGF-α mice were given ARRY twice daily for 4 weeks while TGF-α was induced. […] More specifically, FIG. 3 illustrates that ARRY prevents TGF-α-mediated alterations in lung mechanics (*=p<0.05 compared to vehicle and ARRY-treated mice). […] Representative samples from four mice per group include low power (4×) and higher power (10×) of pleural fibrosis. […] To induce TGF-α expression, adult transgenic mice (8-12 weeks old) were placed on Doxycycline-containing drinking water (0.5 mg/ml) and food (62.5 mg/kg). Dox-containing water was replaced three times per week. Administration of […]) is a potent, highly specific, allosteric inhibitor of MEK1/2. ARRY is a second generation MEK inhibitor that targets the Ras-Raf-MEK-ERK pathway. ARRY was administered to mice twice daily by gavage, with the first dose at the time of TGF-α induction with doxycycline. Mice were then anesthetized (Isoflurane; Abbott Labs, Chicago, Ill.), and 37.5 mg/kg sterile ARRY142886 was administered by gavage using a 20 gauge feeding catheter (Harvard Apparatus, Holliston, Mass.). Mice were treated with vehicle or ARRY twice daily for up to 4 weeks. Mice were weighed at the beginning of the study and at weekly intervals. […]

[11] = Rescue study of established fibrosis: body weight; type: in vivo; details: CCSP/TGFα mice, 8 weeks total Dox, treatment during last 4 weeks, vs vehicle
Method: as §1, §3

## C=CCN(/C=C1/C(=O)O[C@H](COC)[C@@]2(C)C1=C(O)C(=O)C1=C2[C@H](OC(C)=O)C[C@]2(C)C(=O)CC[C@@H]12)CC=C [PX-866]
[1]
  phosphorylation of ERK1/2 in treated TGF-α mice: remain phosphorylated

## C#Cc1cccc(Nc2ncnc3cc(OCCOC)c(OCCOC)cc23)c1 [erlotinib]
[2]
  fibrosis in the CCSP/TGF-α transgenic model: prevented fibrosis

## COc1cc2ncnc(Nc3ccc(F)c(Cl)c3)c2cc1OCCCN1CCOCC1 [gefitinib]
[2]
  fibrosis in the CCSP/TGF-α transgenic model: prevented fibrosis

## Cn1cnc2c(F)c(Nc3ccc(Br)cc3Cl)c(C(=O)NOCCO)cc21 [ARRY142886]
[3]
  phosphorylation of ERK1/2 in lung homogenates: inhibited increased phosphorylation of ERK1/2
[4]
  lung proliferation and matrix gene expression: significantly reduced lung proliferation and matrix gene expression
[5]
  pulmonary fibrosis measured by lung matrix expression on lung histology: reduced pulmonary fibrosis
[6]
  total lung collagen: prevents TGF-α-induced fibrosis as assessed by total lung collagen
[7]
  lung mechanics (compliance, airway resistance, elastance): improved lung mechanics
[8]
  lung mechanics (airway resistance, airway and tissue elastance, compliance): no changes in lung mechanics
[8]; listed as ARRY
  lung mechanics (airway resistance, airway and tissue elastance, compliance): prevented TGFα-mediated increases in airway resistance, and airway and tissue elastance and decreases in compliance
[9]
  TGF-α-induced cellular proliferation (epithelial and mesenchymal) in lung sections: dose-dependent inhibition of TGF-α-induced cellular proliferation
[10]; CCSP/TGF-α mice, twice daily for 4 weeks from time of Dox, trichrome stain
  lung fibrosis on lung histology: prevents TGF-α-induced pulmonary fibrosis as demonstrated by lung histology
[10]; TGF-α transgenic mice, 4 weeks twice daily, vs vehicle
  lung fibrosis overall (4-week prevention study): complete prevention of lung fibrosis
[11]
  body weight loss: Body weight loss was attenuated
